Reference: patent publication US8961959B2, “Glucosylceramide synthase inhibitors and therapeutic methods using the same” (The Regents of the University of Michigan, priority 2011, dated 2015)

Legend:
[1] = drug distribution studies; cited from earlier work
Sandhoff (Hexb−/−) mice = assay: Juvenile Sandhoff (Hexb−/−) mice treated with compound 3h; format: in vivo, mouse; settings: for Neutral Lipids GA2: p-15 Sandhoff mice; for Total Siatic Acid: Hexb −/− p-15, 60 mg/kg/day i.p. p-9 to p-15, resorcinol assay
Procedure: The SV/129 Hexb−/− mice were obtained from the NIH. The mice were derived by the disruption of the murine Hexb gene and transferring this gene into the mouse genome via homologous recombination and embryonic stem cell technology as previously described (38). The genotypes of mice were determined by PCR as previously described. Mice were propagated and housed in plastic cages with filter tops containing Sani-Chip bedding (P.J. Murphy Forest Products Corp.; Montville, N.J.). Food and water were provided ad libitum. Nursing females were provided with cotton nesting pads for the duration of the experiment.
The solution was dried under nitrogen, resuspended in 3.6 ml distilled H2O, then dissolved at 42° C. in a shaking water bath. The solution was neutralized by adding 400 μl of 10× phosphate buffer saline (PBS), and was sterilized following passage through an Acrodisc 0.2 μm syringe filter (Sigma, St. Louis, Mo.). […] The mice were weighed daily and received intraperitoneal (i.p.) injections equivalent to 60 mg/kg from postnatal day 9 (p-9) to postnatal day 15 (p-15). Control mice received i.p. injections of PBS. Injections were performed using a Hamilton syringe (26 gauge, point style 2, 0.5 inch needle) (Hamilton, Reno, Nev.), and volumes ranged from 50 ul to 100 μl/mouse. The mice were sacrificed 4 hrs after the final injection on p-15. Cerebrum, cerebellum, and liver were dissected and frozen on dry ice to determine wet weight. The tissues then were homogenized in 3.0 ml distilled H2O, and 150 μl of each homogenate was set aside for analysis of protein and lysosomal enzyme activities. The remaining homogenate was frozen at −80° C., lyophilized, then weighed before lipid extraction. […]
Lipid extraction of lyophilized tissue was performed overnight in 5 ml CHCl3:CH3OH 1:1 (v/v). Samples were spun down at 2500 rpm for 20 min, and the supernatant was collected. Pellets were washed in 2 ml CHCl3:CH3OH 1:1 (v/v), spun down again, and the total 7 ml of supernatant was brought up to a final volume of 19.6 ml at a ratio of 30:60:8 CHCl3:CH3OH:dH2O (v/v/v).
Neutral lipids and cholesterol were separated from acidic lipids and gangliosides by ion exchange chromatography as we described (32, 28, 24). The total lipid extract, suspended in CHCl3:CH3OH:dH2O, 30:60:8 by volume (solvent A), was applied to a DEAE Sephadex column (1.2 mL bed volume) that had been equilibrated prior with solvent A (28). The column was washed twice with 20 mL solvent A and the entire neutral lipid fraction, consisting of the initial eluent plus washes, was collected. This fraction contained cholesterol, phosphatidylcholine, phosphatidylethanolamine and plasmalogens, sphingomyelin, and neutral GSLs to include cerebrosides and asialo-GM2 (GA2). Next, acidic lipids were eluted from the column with 35 mL CHCl3:CH3OH:0.8 M Na acetate, 30:60:8 by volume. Gangliosides were separated from acidic phospholipids by Folch partitioning, base treated, and desalted as previously described (32, 28). Neutral lipids were dried by rotary evaporation and resuspended in 10 mL CHCl3:CH3OH (2:1; v/v). A 4 mL aliquot was evaporated under nitrogen, base treated with 1 N NaOH, and Folch partitioned. The Folch lower phase containing GA2 was evaporated under nitrogen and resuspended in 4 mL CHCl3:CH3OH (2:1; v/v).
Total ganglioside content was quantified before and after desalting using the resorcinol assay as previously described (28). Sialic acid values were fit to a standard curve using n-acetylneuraminic acid as a standard.
All lipids were analyzed qualitatively by high-performance thin-layer chromatography (HPTLC) according to previously described methods (28, 24, 25). Lipids were spotted on 10 cm×20 cm Silica gel 60 HPTLC plates (E. Merck, Darmstadt, Germany) using a Camag Linomat III auto-TLC spotter (Camag Scientific, Inc., Wilmington, N.C.). […]

[2] = Hexb −/− mice p-15, 60 mg/kg/day i.p. p-9 to p-15, mean ± SEM
[3] = cerebellum, Hexb −/− p-15, 60 mg/kg/day
[4] = cerebrum, Hexb −/− p-15, 60 mg/kg/day
[5] = liver, Hexb −/− p-15, 60 mg/kg/day

Q: Which “transport across the blood brain barrier” value [1] does the source give for `CCCCCCCC(=O)N[C@H](CN1CCCC1)[C@H](O)c1ccc2c(c1)OCCO2` [Compound 3a, N-((1R,2R)-1-(2,3-dihydrobenzo-[b][1,4]dioxin-6-yl)-1-hydroxy-3-(pyrrolidin-1-yl)propan-2-yl)octanamide, reference compound] here?
A: not transported across the blood brain barrier

Q: For `O=C(CC1Cc2ccccc2C1)N[C@H](CN1CCCC1)[C@H](O)c1ccc2c(c1)OCCO2` [Compound 3h, 2-(2,3-dihydro-1H-inden-2-yl)-N-((1R,2R)-1-(2,3-dihydrobenzo[b][1,4]dioxin-6-yl)-1-hydroxy-3-(pyrrolidin-1-yl)propan-2-yl)acetamide], which “adverse effects on body weight over the treatment period” value (Sandhoff (Hexb−/−) mice; 60 mg/kg/day p-9 to p-15) is on record?
A: no adverse effects

Q: And the “Neutral Lipids GA2” value (Sandhoff (Hexb−/−) mice; Cerebellum)?
A: 0.55 ± 0.01 mg/100 mg dry weight

Q: And the “Neutral Lipids GA2” value (Sandhoff (Hexb−/−) mice; Cerebrum)?
A: 0.51 ± 0.01 mg/100 mg dry weight

Q: What about the “Body Weight” value (Sandhoff (Hexb−/−) mice; Hexb −/− mice p-15, 60 mg/kg/day i.p. p-9 to p-15 (oxalate), mean ± SEM) of the same compound?
A: 9.0 ± 0.5 g

Q: And the “Water Content Cerebellum” value (Sandhoff (Hexb−/−) mice; [2])?
A: 83.88 ± 0.01%

Q: What about the “Water Content Cerebrum” value (Sandhoff (Hexb−/−) mice; [2]) of the same compound?
A: 84.45 ± 0.01%

Q: What about the “Wet Weight Cerebellum” value (Sandhoff (Hexb−/−) mice; [2]) of the same compound?
A: 87.7 ± 7.7 mg

Q: And the “Wet Weight Cerebrum” value (Sandhoff (Hexb−/−) mice; [2])?
A: 271.0 ± 2.3 mg

Q: What about the “Neutral Lipids GA2” value (Sandhoff (Hexb−/−) mice; Liver) of the same compound?
A: 1.10 ± 0.05 mg/100 mg dry weight

Q: And the “reduction of GM2 content” value (Sandhoff (Hexb−/−) mice; cerebellum of Hexb −/− mice)?
A: 53%

Q: And the “total sialic content lower than in control Hexb −/− mice” value (from here on “total sialic content lower than”) (Sandhoff (Hexb−/−) mice; cerebellum, 60 mg/kg/day p-9 to p-15)?
A: 14%

Q: What about the “G1a Concentration” value (Sandhoff (Hexb−/−) mice; [3]) of the same compound?
A: 76.6 ± 3.7 micrograms of sialic acid per 100 mg dry weight

Q: What about the “G1a Percent” value (Sandhoff (Hexb−/−) mice; [3]) of the same compound?
A: 24.1 ± 0.3%

Q: What about the “GD1b Concentration” value (Sandhoff (Hexb−/−) mice; [3]) of the same compound?
A: 42.1 ± 2.0 micrograms of sialic acid per 100 mg dry weight

Q: And the “GD1b Percent” value (Sandhoff (Hexb−/−) mice; [3])?
A: 24.1 ± 0.3%

Q: And the “GD3 Concentration” value (Sandhoff (Hexb−/−) mice; [3])?
A: 9.8 ± 1.2 micrograms of sialic acid per 100 mg dry weight

Q: What about the “GD3 Percent” value (Sandhoff (Hexb−/−) mice; [3]) of the same compound?
A: 4.3 ± 0.2%

Q: What about the “GM1 Concentration” value (Sandhoff (Hexb−/−) mice; [3]) of the same compound?
A: 17.4 ± 1.4 micrograms of sialic acid per 100 mg dry weight

Q: And the “GM1 Percent” value (Sandhoff (Hexb−/−) mice; [3])?
A: 5.5 ± 0.4%

Q: And the “GM2 Concentration” value (Sandhoff (Hexb−/−) mice; [3])?
A: 9.8 ± 1.2 micrograms of sialic acid per 100 mg dry weight

Q: What about the “GM2 Percent” value (Sandhoff (Hexb−/−) mice; [3]) of the same compound?
A: 3.1 ± 0.1%

Q: And the “GQ1b Concentration” value (Sandhoff (Hexb−/−) mice; [3])?
A: 41.3 ± 3.8 micrograms of sialic acid per 100 mg dry weight

Q: What about the “GQ1b Percent” value (Sandhoff (Hexb−/−) mice; [3]) of the same compound?
A: 12.9 ± 0.1%

Q: And the “GT1a/LD1 Concentration” value (Sandhoff (Hexb−/−) mice; [3])?
A: 22.9 ± 1.0 micrograms of sialic acid per 100 mg dry weight

Q: What about the “GT1a/LD1 Percent” value (Sandhoff (Hexb−/−) mice; [3]) of the same compound?
A: 7.2 ± 0.1%

Q: And the “GT1b Concentration” value (Sandhoff (Hexb−/−) mice; [3])?
A: 94.4 ± 3.9 micrograms of sialic acid per 100 mg dry weight

Q: And the “GT1b Percent” value (Sandhoff (Hexb−/−) mice; [3])?
A: 29.7 ± 0.8%

Q: What about the “Total Siatic Acid” value (Sandhoff (Hexb−/−) mice; cerebellum, mean ± SEM) of the same compound?
A: 318 ± 15

Q: And the “reduction of GM2 content” value (Sandhoff (Hexb−/−) mice; cerebrum of Hexb −/− mice)?
A: 52%

Q: What about the “total sialic content lower than” value (Sandhoff (Hexb−/−) mice; cerebrum, 60 mg/kg/day p-9 to p-15) of the same compound?
A: 11%

Q: And the “G1a Concentration” value (Sandhoff (Hexb−/−) mice; [4])?
A: 187.4 ± 5.2 micrograms of sialic acid per 100 mg dry weight

Q: And the “G1a Percent” value (Sandhoff (Hexb−/−) mice; [4])?
A: 43.4 ± 0.3%

Q: And the “GD1b Concentration” value (Sandhoff (Hexb−/−) mice; [4])?
A: 31.7 ± 0.5 micrograms of sialic acid per 100 mg dry weight

Q: What about the “GD1b Percent” value (Sandhoff (Hexb−/−) mice; [4]) of the same compound?
A: 7.3 ± 0.1%

Q: What about the “GM1 Concentration” value (Sandhoff (Hexb−/−) mice; [4]) of the same compound?
A: 26.4 ± 1.6 micrograms of sialic acid per 100 mg dry weight

Q: What about the “GM1 Percent” value (Sandhoff (Hexb−/−) mice; [4]) of the same compound?
A: 6.1 ± 0.2%

Q: And the “GM2 Concentration” value (Sandhoff (Hexb−/−) mice; [4])?
A: 87.7 ± 7.7 micrograms of sialic acid per 100 mg dry weight

Q: And the “GM2 Percent” value (Sandhoff (Hexb−/−) mice; [4])?
A: 2.8 ± 0.1%

Q: And the “GQ1b Concentration” value (Sandhoff (Hexb−/−) mice; [4])?
A: 33.3 ± 0.7 micrograms of sialic acid per 100 mg dry weight

Q: What about the “GQ1b Percent” value (Sandhoff (Hexb−/−) mice; [4]) of the same compound?
A: 7.7 ± 0.1%

Q: What about the “GT1a/LD1 Concentration” value (Sandhoff (Hexb−/−) mice; [4]) of the same compound?
A: 20.8 ± 0.7 micrograms of sialic acid per 100 mg dry weight

Q: What about the “GT1a/LD1 Percent” value (Sandhoff (Hexb−/−) mice; [4]) of the same compound?
A: 4.8 ± 0.3%

Q: What about the “GT1b Concentration” value (Sandhoff (Hexb−/−) mice; [4]) of the same compound?
A: 119.8 ± 3.3 micrograms of sialic acid per 100 mg dry weight

Q: What about the “GT1b Percent” value (Sandhoff (Hexb−/−) mice; [4]) of the same compound?
A: 27.8 ± 0.1%

Q: And the “Total Siatic Acid” value (Sandhoff (Hexb−/−) mice; cerebrum, mean ± SEM)?
A: 432 ± 11

Q: And the “body weight versus control Hexb −/− mice” value (Sandhoff (Hexb−/−) mice; in words)?
A: slightly higher

Q: And the “reduction of NGNA-GM2 content” value (Sandhoff (Hexb−/−) mice; liver, versus PBS-treated Hexb −/− controls)?
A: 45%

Q: What about the “total sialic content lower than” value (Sandhoff (Hexb−/−) mice; liver, 60 mg/kg/day p-9 to p-15) of the same compound?
A: 38%

Q: What about the “G1a Concentration” value (Sandhoff (Hexb−/−) mice; [5]) of the same compound?
A: 12.2 ± 0.3 micrograms of sialic acid per 100 mg dry weight

Q: And the “G1a Percent” value (Sandhoff (Hexb−/−) mice; [5])?
A: 17.6 ± 1.1%

Q: And the “GM1 Concentration” value (Sandhoff (Hexb−/−) mice; [5])?
A: 15.4 ± 2.1 micrograms of sialic acid per 100 mg dry weight

Q: And the “GM1 Percent” value (Sandhoff (Hexb−/−) mice; [5])?
A: 21.9 ± 1.5%

Q: And the “GM2 Concentration” value (Sandhoff (Hexb−/−) mice; [5])?
A: 42.1 ± 2.6 micrograms of sialic acid per 100 mg dry weight

Q: What about the “GM2 Percent” value (Sandhoff (Hexb−/−) mice; [5]) of the same compound?
A: 60.5 ± 1.3%

Q: And the “Total Siatic Acid” value (Sandhoff (Hexb−/−) mice; liver, mean ± SEM)?
A: 70 ± 5

Q: And the “reduction of GA2 in Hexb −/− liver” value (Sandhoff (Hexb−/−) mice; p=0.06)?
A: not significant
